Experimental data: US4900730A, “Preparation which promotes the absorption of peptides” (priority 1981, dated 1990)
Each block holds one compound with its values, some of them ahead of it.

Test: Rectal circulation: Cephalothin disappeared by absorption (Examples 10-14, 16-18)
Experimental: The experiments were conducted similarly as in Example 1. […] Each sample was diluted and the quantity of Cephalothin disappeared was determined by UV-spectrophotometer of high-speed liquid chromatography.

[1] = Table 11, promoter 0.5% W/V, Example 10 repeated, four-fold tonic
[2] = Table 11, promoter 0.5% W/V, Example 10 repeated, isotonic
[3] = Table 4, promoter 0.1% W/V, 0.1% W/V Cephalothin.Na, isotonic, after one hour
[4] = Table 4, promoter 0.1% W/V, 0.1% W/V Cephalothin.Na, four-fold tonic, after one hour
[5] = Table 4, promoter 0.1% W/V, 0.1% W/V Cephalothin.Na, two-fold tonic, after one hour
[6] = Table 5, promoter 0.1% W/V, 0.1% W/V Cephalothin.Na, four-fold tonic, one hour

Structure (SMILES): NC(CS(=O)(=O)O)C(=O)O (racemic) [DL-cysteic acid]
Cephalothin disappeared by absorption, Osmotic pressure X 1 (rat, in vivo): 5.3 percents
Cephalothin disappeared by absorption, Osmotic pressure X 2 (rat, in vivo): 9.0 percents
Cephalothin disappeared by absorption, Osmotic pressure X 4 (rat, in vivo): 14.6 percents

Structure (SMILES): O=C(O)[C@@H]1C[C@@H](O)CN1 (racemic) [DL-hydroxyproline]
Cephalothin disappeared by absorption, Osmotic pressure X 4 [1]: 12.9 percents
Cephalothin disappeared by absorption, Osmotic pressure X 1 [2]: 5.5 percents

Structure (SMILES): NC(Cc1ccccc1)C(=O)O (racemic) [DL-phenylalanine]
Cephalothin disappeared by absorption, Osmotic pressure X 1 (rat, in vivo): 6.6 percents
Cephalothin disappeared by absorption, Osmotic pressure X 4 (rat, in vivo): 15.6 percents

Structure (SMILES): NC(C(=O)O)c1ccccc1 (racemic) [DL-phenylglycine]
Cephalothin disappeared by absorption, Osmotic pressure X 4 (rat, in vivo): 29.3 percents

Structure (SMILES): CCC(NC(=O)CN)C(=O)O (racemic) [Glycyl-DL-aminobutyric acid, glycyl-DL-aminobutyric acid]
Cephalothin disappeared by absorption, Osmotic pressure X 1 (rat, in vivo): 11.0 percents
Cephalothin disappeared by absorption, Osmotic pressure X 4 (rat, in vivo): 30.4 percents

Structure (SMILES): NCC(=O)NC(CC(=O)O)C(=O)O (racemic) [Glycyl-DL-aspartic acid, glycyl-DL-aspartic acid]
Cephalothin disappeared by absorption, Osmotic pressure X 1 (rat, in vivo): 8.6 percents
Cephalothin disappeared by absorption, Osmotic pressure X 4 (rat, in vivo): 19.0 percents

Structure (SMILES): O=C(O)c1c(O)cccc1O [2,6-dihydroxybenzoic acid]
Cephalothin.Na disappeared by absorption, Osmotic pressure X 1 (rat, in vivo): 9.5 percents
Cephalothin.Na disappeared by absorption, Osmotic pressure X 2 (rat, in vivo): 15.3 percents
Cephalothin.Na disappeared by absorption, Osmotic pressure X 4 (rat, in vivo): 22.9 percents

Structure (SMILES): CC(=O)CC(=O)Cc1ccccc1 [3-Phenylacetyl acetone, 3-phenylacetyl acetone]
Cephalothin disappeared by absorption, Osmotic pressure X 4 (Table 10, diketo-compounds, Example 10 repeated, four-fold tonic): 22.2 percents
Cephalothin disappeared by absorption, Osmotic pressure X 1 (Table 10, diketo-compounds, Example 10 repeated, isotonic): 9.1 percents
Cephalothin disappeared by absorption, Osmotic pressure X 2 (Table 10, diketo-compounds, Example 10 repeated, two-fold tonic): 16.3 percents

Structure (SMILES): O=C(O)CN(CC(=O)O)C1CCCCC1N(CC(=O)O)CC(=O)O (stereo not drawn) [CyDTA, trans-cyclohexanediaminetetraacetic acid]
Cephalothin disappeared by absorption, Osmotic pressure (%) X 1 (rat, in vivo): 8.1%
Cephalothin disappeared by absorption, Osmotic pressure (%) X 2 (rat, in vivo): 15.0%
Cephalothin disappeared by absorption, Osmotic pressure (%) X 4 (rat, in vivo): 32.3%

Structure (SMILES): O=S(=O)(O)c1cc(O)c(O)c(S(=O)(=O)O)c1 [DHBDS, 1,2-dihydroxybenzene-3,5-disulfonic acid]
Cephalothin disappeared by absorption, Osmotic pressure X 1 (rat, in vivo): 9.8 percents
Cephalothin disappeared by absorption, Osmotic pressure X 4 (rat, in vivo): 22.0 percents

Structure (SMILES): NCC(=O)O [DL-glycine]
Cephalothin disappeared by absorption, Osmotic pressure X 4 [1]: 14.0 percents
Cephalothin disappeared by absorption, Osmotic pressure X 1 [2]: 6.9 percents
Cephalothin disappeared by absorption, Osmotic pressure X 2 (Table 11, promoter 0.5% W/V, Example 10 repeated, two-fold tonic): 9.4 percents

Structure (SMILES): O=C(O)CN(CC(=O)O)CC(O)CN(CC(=O)O)CC(=O)O [DTPA-OH, diaminopropanoltetraacetic acid]
Cephalothin disappeared by absorption, Osmotic pressure (%) X 1 (rat, in vivo): 7.5%
Cephalothin disappeared by absorption, Osmotic pressure (%) X 2 (rat, in vivo): 13.7%
Cephalothin disappeared by absorption, Osmotic pressure (%) X 4 (rat, in vivo): 21.6%

Structure (SMILES): O=C(O)CN(CCN(CC(=O)O)CC(=O)O)CC(=O)O [EDTA.2Na, ethylenediaminetetraacetic acid]
Cephalothin disappeared by absorption, Osmotic pressure (%) X 1 [3]: 9.4%

Structure (SMILES): O=P(O)(O)CN(CCN(CP(=O)(O)O)CP(=O)(O)O)CP(=O)(O)O [EDTPO, ethylenediaminetetrakis(methylenephosphonicacid)]
Cephalothin disappeared by absorption, Osmotic pressure X 1 (rat, in vivo): 7.6 percents
Cephalothin disappeared by absorption, Osmotic pressure X 4 (rat, in vivo): 20.0 percents

Structure (SMILES): CCC(C(=O)O)C(=O)O [Ethylmalonic acid, ethylmalonic acid]
Cephalothin disappeared by absorption, Osmotic pressure (%) X 1 (rat, in vivo): 12.3%
Cephalothin disappeared by absorption, Osmotic pressure (%) X 2 (rat, in vivo): 24.2%
Cephalothin disappeared by absorption, Osmotic pressure (%) X 4 (rat, in vivo): 36.9%

Structure (SMILES): O=P(O)(O)OC[C@H]1O[C@](O)(COP(=O)(O)O)[C@@H](O)[C@@H]1O [Fructose-1,6-diphosphoric acid]
Cephalothin disappeared by absorption, Osmotic pressure X 1 (rat, in vivo): 4.1 percents
Cephalothin disappeared by absorption, Osmotic pressure X 2 (rat, in vivo): 7.5 percents
Cephalothin disappeared by absorption, Osmotic pressure X 4 (rat, in vivo): 13.3 percents

Structure (SMILES): O=C[C@H](O)[C@@H](O)[C@@H](O)[C@H](O)C(=O)O [Galactronic acid, galacturonic acid]
Cephalothin disappeared by absorption, Osmotic pressure X 1 (rat, in vivo): 5.8 percents
Cephalothin disappeared by absorption, Osmotic pressure X 2 (rat, in vivo): 10.5 percents
Cephalothin disappeared by absorption, Osmotic pressure X 4 (rat, in vivo): 16.1 percents

Structure (SMILES): O=C[C@H](O)[C@@H](O)[C@H](O)[C@H](O)C(=O)O [Glucronic acid, glucuronic acid]
Cephalothin disappeared by absorption, Osmotic pressure X 1 (rat, in vivo): 5.5 percents
Cephalothin disappeared by absorption, Osmotic pressure X 2 (rat, in vivo): 11.1 percents
Cephalothin disappeared by absorption, Osmotic pressure X 4 (rat, in vivo): 16.4 percents

Structure (SMILES): O=C(O)CCCC(=O)O [Glutaric acid, glutaric acid]
Cephalothin disappeared by absorption, Osmotic pressure (%) X 4 [4]: 15.2%
Cephalothin disappeared by absorption, Osmotic pressure (%) X 1 [3]: 5.7%
Cephalothin disappeared by absorption, Osmotic pressure (%) X 2 [5]: 9.3%

Structure (SMILES): O=C(O)CNCC(=O)O [Iminodiacetic acid, iminodiacetic acid]
Cephalothin disappeared by absorption, Osmotic pressure (%) X 1 (rat, in vivo): 7.1%
Cephalothin disappeared by absorption, Osmotic pressure (%) X 2 (rat, in vivo): 14.2%
Cephalothin disappeared by absorption, Osmotic pressure (%) X 4 (rat, in vivo): 17.0%

Structure (SMILES): CC(=O)CCC(=O)O [Levulinic acid, levulinic acid]
Cephalothin disappeared by absorption, Osmotic pressure (%) X 1 (rat, in vivo): 11.9%
Cephalothin disappeared by absorption, Osmotic pressure (%) X 2 (rat, in vivo): 21.1%
Cephalothin disappeared by absorption, Osmotic pressure (%) X 4 (rat, in vivo): 34.3%

Structure (SMILES): O=C(O)CC(O)C(=O)O (stereo not shown) [Malic acid, malic acid]
Cephalothin disappeared by absorption, Osmotic pressure X 4 (Table 6, promoter 0.1 W/V %, 0.1 W/V % Cephalothin.Na, four-fold tonic, one hour): 18.8 percents
Cephalothin disappeared by absorption, Osmotic pressure X 1 (Table 6, promoter 0.1 W/V %, 0.1 W/V % Cephalothin.Na, isotonic, one hour): 7.2 percents
Cephalothin disappeared by absorption, Osmotic pressure X 2 (Table 6, promoter 0.1 W/V %, 0.1 W/V % Cephalothin.Na, two-fold tonic, one hour): 12.3 percents

Structure (SMILES): CN(C)[C@@H](Cc1ccccc1)C(=O)O [N--dimethylphenylalanine, N-dimethylphenylalanine]
Cephalothin disappeared by absorption, Osmotic pressure X 1 (rat, in vivo): 10.9 percents
Cephalothin disappeared by absorption, Osmotic pressure X 4 (rat, in vivo): 25.5 percents

Structure (SMILES): O=C(O)CNc1ccccc1 [N--phenylglycine, N-phenylglycine]
Cephalothin disappeared by absorption, Osmotic pressure X 1 (rat, in vivo): 12.0 percents
Cephalothin disappeared by absorption, Osmotic pressure X 2 (rat, in vivo): 22.3 percents
Cephalothin disappeared by absorption, Osmotic pressure X 4 (rat, in vivo): 30.8 percents

Structure (SMILES): O=CC(=O)[O-].[Na+] [Sodium glyoxalate, sodium glyoxalate]
Cephalothin disappeared by absorption, Osmotic pressure (%) X 4 [6]: 13.1%
Cephalothin disappeared by absorption, Osmotic pressure (%) X 1 (Table 5, promoter 0.1% W/V, 0.1% W/V Cephalothin.Na, isotonic, one hour): 4.9%

Structure (SMILES): O=C(O)/C=C(\CC(=O)O)C(=O)O [Trans-aconitic acid, trans-aconitic acid]
Cephalothin disappeared by absorption, Osmotic pressure (%) X 4 [4]: 27.8%
Cephalothin disappeared by absorption, Osmotic pressure (%) X 1 [3]: 10.5%
Cephalothin disappeared by absorption, Osmotic pressure (%) X 2 [5]: 18.6%

Now from value to compound:

Cephalothin disappeared by absorption, Osmotic pressure X 4 (Table 11, promoter 0.1% W/V, Example 10 repeated, four-fold tonic): 21.4 percents
Cephalothin disappeared by absorption, Osmotic pressure X 1 (Table 11, promoter 0.1% W/V, Example 10 repeated, isotonic): 11.9 percents
Structure (SMILES): COC(=O)C(N)CCC(=O)O (racemic) [α-methyl DL-glutamate]

Cephalothin disappeared by absorption, Osmotic pressure (%) X 1 (rat, in vivo): 5.1%
Cephalothin disappeared by absorption, Osmotic pressure (%) X 2 (rat, in vivo): 7.8%
Cephalothin disappeared by absorption, Osmotic pressure (%) X 4 (rat, in vivo): 15.0%
Structure (SMILES): O=C(O)CCCCCC(=O)O [Pimellic acid, pimellic acid]

Cephalothin disappeared by absorption, Osmotic pressure (%) X 1 (rat, in vivo): 8.4%
Cephalothin disappeared by absorption, Osmotic pressure (%) X 2 (rat, in vivo): 12.7%
Cephalothin disappeared by absorption, Osmotic pressure (%) X 4 (rat, in vivo): 19.6%
Structure (SMILES): O=C([O-])C(=O)C(=O)[O-].[Na+].[Na+] [Sodium ketomalonate, sodium ketomalonate]

Cephalothin disappeared by absorption, Osmotic pressure (%) X 4 [4]: 18.3%
Cephalothin disappeared by absorption, Osmotic pressure (%) X 1 [3]: 6.6%
Structure (SMILES): O=C([O-])C(=O)[O-].[Na+].[Na+] [Sodium oxalate, sodium oxalate]

Cephalothin.Na disappeared by absorption, Osmotic pressure X 1 (rat, in vivo): 7.1 percents
Cephalothin.Na disappeared by absorption, Osmotic pressure X 4 (rat, in vivo): 18.9 percents
Structure (SMILES): O=C([O-])c1ccccc1C(=O)[O-].[Na+].[Na+] [Sodium phthalate, sodium phthalate]

Cephalothin disappeared by absorption, Osmotic pressure (%) X 1 (rat, in vivo): 7.0%
Cephalothin disappeared by absorption, Osmotic pressure (%) X 2 (rat, in vivo): 11.6%
Cephalothin disappeared by absorption, Osmotic pressure (%) X 4 (rat, in vivo): 23.1%
Structure (SMILES): CC(=O)C(=O)[O-].[Na+] [Sodium pyruvate, sodium pyruvate]

Cephalothin disappeared by absorption, Osmotic pressure (%) X 1 (rat, in vivo): 8.2%
Cephalothin disappeared by absorption, Osmotic pressure (%) X 2 (rat, in vivo): 13.1%
Cephalothin disappeared by absorption, Osmotic pressure (%) X 4 (rat, in vivo): 24.0%
Structure (SMILES): O=C(O)CCC(=O)O [Succinic acid]

Cephalothin disappeared by absorption, Osmotic pressure (%) X 1 (rat, in vivo): 11.2%
Cephalothin disappeared by absorption, Osmotic pressure (%) X 2 (rat, in vivo): 18.3%
Cephalothin disappeared by absorption, Osmotic pressure (%) X 4 (rat, in vivo): 30.9%
Structure (SMILES): CCC(=O)C(=O)O [α-ketobutyric acid]

Cephalothin disappeared by absorption, Osmotic pressure (%) X 4 [6]: 25.6%
Structure (SMILES): O=C(O)CCC(=O)C(=O)O [α-ketoglutaric acid]

Cephalothin disappeared by absorption, Osmotic pressure (%) X 1 (rat, in vivo): 9.8%
Cephalothin disappeared by absorption, Osmotic pressure (%) X 2 (rat, in vivo): 14.7%
Cephalothin disappeared by absorption, Osmotic pressure (%) X 4 (rat, in vivo): 23.2%
Structure (SMILES): CCCC(=O)C(=O)O [α-ketovaleric acid]

Cephalothin disappeared by absorption, Osmotic pressure X 1 (rat, in vivo): 13.1 percents
Cephalothin disappeared by absorption, Osmotic pressure X 2 (rat, in vivo): 24.6 percents
Cephalothin disappeared by absorption, Osmotic pressure X 4 (rat, in vivo): 31.4 percents
Structure (SMILES): N[C@@H](CC(C(=O)O)C(=O)O)C(=O)O [γ-carboxyglutamic acid]

Cephalothin disappeared by absorption, Osmotic pressure X 1 (rat, in vivo): 7.1 percents
Cephalothin disappeared by absorption, Osmotic pressure X 2 (rat, in vivo): 11.8 percents
Cephalothin disappeared by absorption, Osmotic pressure X 4 (rat, in vivo): 17.0 percents
Structure (SMILES): NCCCCCC(=O)O [ε-aminocaproic acid]
